Experimental data reported in patent US20240108634A1, “COMPOSITIONS AND METHODS FOR INHIBITING YAP” (The United States Government as represented by the …, priority 2021, published 2024).

Key:
LN229 and GBM39 cells = assay: GBM cell proliferation; type: cell-based, human; details: 0.1, 1, 2 μM
Source text: Cells were layered in soft agar to evaluate anchorage-independent growth in the presence of the indicated concentrations of inhibitor and colonies counted following 14 days of growth. Representative crystal violet stained images are shown below. Data represent mean+S.D. of three independent experiments. […] Cells were placed in Boyden chambers and allowed to migrate towards BSA (white bars), vitronectin (light yellow bars), or fibronectin (dark yellow bars) (*, P<0.05; n=3). […] Representative crystal violet stained images are shown (200×). Data represent mean+S.D. of three independent experiments. […] Graphical data shown below represent mean+S.D. (late apoptosis; annexin V-positive, PI-positive) of three independent experiments.
Cell proliferation, clonogenic, migration, invasion and apoptosis assays. Cell proliferation was determined via Cell Titer-Glo® luminescent cell assays (Promega). Clonogenic assays were done by plating a total of 1,000 cells per well in 24-well plates in a total volume of 400 μL using a two-layered soft agar system as previously described (Masri J, et al. (2007) Cancer Res 67: 11712-11720). Cell migration assays were conducted using precoated modified Boyden chambers as previously described (Benavides-Serrato A, et al. (2017) PLoS One 12: e0176599). […]

full-length YAP = target: T1, full-length YAP (Homo sapiens, UniProt P46937); assay: Surface plasmon resonance of NSC682769 analyte on immobilized full-length YAP; details: SPR, 25° C., read-out: Kd from steady-state binding
T1 construct: made in house; host or cells: bacterial (inferred)
T1 sequence (P46937 whole entry): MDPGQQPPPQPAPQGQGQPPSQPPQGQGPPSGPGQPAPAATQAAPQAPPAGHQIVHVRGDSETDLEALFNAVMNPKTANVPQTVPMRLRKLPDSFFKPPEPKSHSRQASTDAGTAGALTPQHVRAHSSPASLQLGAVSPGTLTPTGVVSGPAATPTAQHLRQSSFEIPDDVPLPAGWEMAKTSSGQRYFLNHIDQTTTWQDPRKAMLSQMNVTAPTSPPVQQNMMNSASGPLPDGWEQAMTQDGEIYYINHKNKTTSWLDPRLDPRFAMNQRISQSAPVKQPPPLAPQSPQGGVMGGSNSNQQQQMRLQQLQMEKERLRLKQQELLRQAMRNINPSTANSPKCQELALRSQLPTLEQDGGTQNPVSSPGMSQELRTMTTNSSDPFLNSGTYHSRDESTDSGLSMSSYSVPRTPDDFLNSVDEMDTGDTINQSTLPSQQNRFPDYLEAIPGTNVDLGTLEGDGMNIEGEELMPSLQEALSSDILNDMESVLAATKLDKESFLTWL
Experimental: FIGS. 1A-G show the identification of a YAP1-TEAD1 binding interface inhibitor. […] The Gal4 DBD was fused to residues 50-171 of human YAP1 and the Gal4 AD was fused to residues 194-411 of human TEAD1. These fusions were expressed in yeast containing reporters harboring Gal4 upstream activating sequences (UAS). […] Yeast expressing either p53-DBD and SV40 large T antigen-AD fusions or YAP1-DBD and TEAD1-AD fusions were plated on selective media. Compounds were pinned onto the plate surfaces by robotic transfer and subsequently examined for halo formation (indicated by red circles). Compounds inhibiting YAP1-TEAD1 mediated growth on selective media while having no effect on p53-T antigen mediated yeast growth were considered specific. […] Pull-down products were analyzed by SDS-PAGE and silver staining. […] Raw binding sensorgrams obtained at each concentration were fitted to a 1:1 binding model and Kon, Koff and KD were calculated by simultaneous non-linear regression analyses.
Surface plasmon resonance (SPR), ELISA, YAP-TEAD reporter activity, cellular fractionation, and immunofluorescence analyses. […] YAP-TEAD reporter activity was determined as previously described (Kim N G, Gumbiner B M (2015) J Cell Biol 210: 503-515). […] Luciferase activity was measured via a luciferase assay system (Promega). […] Cell lysis was monitored by trypan blue staining. […]

COc1ccc(-c2cc(-c3ccccc3)nc3c2CC(=O)Nc2ccccc2-3)cc1OC [NSC682769]
Cell growth (LN229 and GBM39 cells): significantly inhibited
Kd (full-length YAP): 738 nM
